Here are results for 35 compounds from patent publication US9290485B2, “N-((6-amino-pyridin-3-yl)methyl)-heteroaryl-carboxamides” (NOVARTIS AG, priority 2010, dated 2016).

In the experiment the target is human plasma kallikrein (Homo sapiens (Human), UniProt P03952). The note with it: human plasma kallikrein 25 pM, substrate 0.5 uM, 1 hour pre-incubation at room temperature, read at t=60 min.
Sequence of human plasma kallikrein (P03952 whole entry, looked up): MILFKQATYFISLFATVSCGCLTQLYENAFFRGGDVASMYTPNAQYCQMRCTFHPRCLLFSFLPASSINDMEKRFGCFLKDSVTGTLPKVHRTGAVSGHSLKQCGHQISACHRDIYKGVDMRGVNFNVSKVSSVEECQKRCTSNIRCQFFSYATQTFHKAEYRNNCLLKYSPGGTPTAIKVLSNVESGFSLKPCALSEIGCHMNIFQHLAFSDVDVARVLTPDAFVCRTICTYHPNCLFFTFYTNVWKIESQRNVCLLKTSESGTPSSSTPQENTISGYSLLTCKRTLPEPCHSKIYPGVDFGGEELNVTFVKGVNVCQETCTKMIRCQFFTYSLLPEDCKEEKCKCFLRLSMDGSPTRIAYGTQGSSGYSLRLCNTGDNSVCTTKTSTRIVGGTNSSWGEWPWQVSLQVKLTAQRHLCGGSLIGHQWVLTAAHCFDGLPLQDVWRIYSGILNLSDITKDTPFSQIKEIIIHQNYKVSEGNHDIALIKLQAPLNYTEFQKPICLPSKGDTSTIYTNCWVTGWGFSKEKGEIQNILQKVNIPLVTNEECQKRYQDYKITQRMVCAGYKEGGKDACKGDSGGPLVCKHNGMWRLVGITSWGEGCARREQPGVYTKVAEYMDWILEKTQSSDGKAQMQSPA
Sequence of human plasma kallikrein (P03952 whole entry partner, looked up): as the sequence (P03952 whole entry, looked up) above
Description: All other chemicals were of analytical grade.
A stock solution of 0.17 mg/ml deinonized water was stored at −80° C. Enzymatic reactions were conducted in ‘assay buffer’, comprising 50 mM Hepes/NaOH at pH 7.8, 150 mM NaCl, 1 mM EDTA and 0.05% (w/v) CHAPS.
Both, enzyme and substrate were diluted in assay buffer.
All protein and peptide containing solutions were handled in siliconized tubes (Life Systems Design, Merenschwand, Switzerland). […] Plate measurements were conducted by the means of a Safire2 reader (TECAN, Maennedorf, Switzerland). The Safire2 is a monochomator-based instrument and wavelengths of 485 nm and 535 nm were taken for fluorescence excitation and emission acquisition, respectively. The bandwidths were set to 10 nm in both the excitation and the emission path. The fluorescence in each well was excited by three flashes per measurement.
The test compound was dissolved in 90% (v/v) DMSO/water. For the assays, 250 nL of the 90% (v/v) DMSO/water solution or compound solution were added per well, followed by the addition of 12.5 μl protease solution (protease in assay buffer). […] After 1 hour of pre-incubation at room temperature, the reactions were started by the addition of 12.5 μl substrate solution (in assay buffer, final assay concentration was 0.5 uM). After the addition of the substrate solution, the final DMSO concentration in the assay was 0.9% (v/v). […] The IC50 value was calculated from the plot of percentage of inhibition vs. inhibitor concentration by a logistics fit according to the following equation: y=A2+(A1−A2)/(1+(x/IC50)^p) where y is the %-inhibition at the inhibitor concentration, x. A1 is the lowest inhibition value, i.e. 0%, and A2 the maximum inhibition value, i.e. 100%. The exponent, p, is the Hill coefficient. The curve fitting was conducted with the non-linear regression routine of the analysis software Origin 7.55R6 (OriginLab Corporation).
Usually IC50 stands for the concentration at which inhibition is half-maximal. The low end stands for inhibition by little substance, the high end for a need for much substance. As to `Cc1cc(N)nc(C)c1CNC(=O)c1ccn(S(=O)(=O)c2ccc3c(c2)N(C)CCO3)c1` [Example 130, N-((6-amino-2,4-dimethylpyridin-3-yl)methyl)-1-(4-methyl-3,4-dihydro-2H-benzo[b][1,4]oxazin-6-ylsulfonyl)-1H-pyrrole-3-carboxamide], the IC50 was 67 nM. In other words, the double-digit nanomolar range.

As for `Cc1cc(N)nc(C)c1CNC(=O)c1csc(Cc2ccccc2)n1` [Example 47, N-((6-amino-2,4-dimethylpyridin-3-yl)methyl)-2-benzylthiazole-4-carboxamide], half-maximal inhibition (IC50) required 3200 nM.

Consider `Cc1nc(N)cc(Br)c1CNC(=O)c1cnn(Cc2ccccc2)c1` [Example 181, N-((6-Amino-4-bromo-2-methylpyridin-3-yl)methyl)-1-benzyl-1H-pyrazole-4-carboxamide], for which half-maximal inhibition (IC50) required 37000 nM. This IC50 lies about 12-fold higher than the previous one.

Consider `Cc1cc(N)nc(C)c1CNC(=O)c1coc(Cc2ccccc2)n1` [Example 58, N-((6-amino-2,4-dimethylpyridin-3-yl)methyl)-2-benzyloxazole-4-carboxamide], for which the midpoint of inhibition, the IC50, lay at 3800 nM.

Turning to `Cc1cc(N)nc(C)c1CNC(=O)c1cnn(Cc2cc(C(F)(F)F)c3cc(F)ccc3n2)c1` [Example 162, N-((6-amino-2,4-dimethylpyridin-3-yl)methyl)-1-((6-fluoro-4-(trifluoromethyl)quinolin-2-yl)methyl)-1H-pyrazole-4-carboxamide], the IC50 amounted to 5 nM.

`Cc1cc(N)nc(C)c1CNC(=O)c1nc(Cc2ccc(-c3ccccc3)cc2)n[nH]1` [Example 124, N-((6-amino-2,4-dimethylpyridin-3-yl)methyl)-3-(biphenyl-4-ylmethyl)-1H-1,2,4-triazole-5-carboxamide] came in with an IC50 of 71 nM.

As for `Cc1cc(N)nc(C)c1CNC(=O)c1ccn(Cc2ccccc2)c1C` [Example 179, N-((6-Amino-2,4-dimethylpyridin-3-yl)methyl)-1-benzyl-2-methyl-1H-pyrrole-3-carboxamide], the IC50 turned out to be 85800 nM. This IC50 is about 1200-fold higher than that of the compound before.

Compound `Cc1cc(N)nc(C)c1CNC(=O)c1cnn(Cc2ccc3c(c2)OCO3)c1` [Example 103, N-((6-amino-2,4-dimethylpyridin-3-yl)methyl)-1-(benzo[d][1,3]dioxol-5-ylmethyl)-1H-pyrazole-4-carboxamide] displayed an IC50 of 299 nM.

The compound `Cc1cc(N)nc(C)c1CNC(=O)c1ncn(Cc2ccc(-n3cccn3)cc2)n1` [Example 66, 1-(4-(1H-pyrazol-1-yl)benzyl)-N-((6-amino-2,4-dimethylpyridin-3-yl)methyl)-1H-1,2,4-triazole-3-carboxamide] returned a 50% inhibitory concentration (IC50) of 325 nM. This IC50 and that of the compound before are within 1.5-fold of each other.

For the compound `Cc1cc(N)nc(C)c1CNC(=O)c1cnn(Cc2ccc(Cn3cccn3)cc2)c1` [Example 145, 1-(4-((1H-pyrazol-1-yl)methyl)benzyl)-N-((6-amino-2,4-dimethylpyridin-3-yl)methyl)-1H-pyrazole-4-carboxamide], the IC50 is 0.2 nM.

`Cc1cc(N)nc(C)c1CNC(=O)c1nc(Cc2ccc(Oc3ccccc3)cc2)n[nH]1` [Example 125, N-((6-amino-2,4-dimethylpyridin-3-yl)methyl)-3-(4-phenoxybenzyl)-1H-1,2,4-triazole-5-carboxamide] had a half-inhibitory concentration (IC50) of 36 nM.

`Cc1cc(N)nc(C)c1CNC(=O)c1cc(C)n(Cc2ccccc2)c1C` [Example 109, N-((6-amino-2,4-dimethylpyridin-3-yl)methyl)-1-benzyl-2,5-dimethyl-1H-pyrrole-3-carboxamide]: the half-maximal inhibitory concentration (IC50) amounted to 1300 nM.

For the compound `Cc1cc(N)nc(C)c1CNC(=O)c1cn(Cc2ccc(-n3cccn3)cc2)nn1` [Example 41, 1-(4-(1H-pyrazol-1-yl)benzyl)-N-((6-amino-2,4-dimethylpyridin-3-yl)methyl]-1H-1,2,3-triazole-4-carboxamide], the IC50 was 108 nM.

Regarding `Cc1cc(N)nc(C)c1CNC(=O)c1ccn(S(=O)(=O)c2ccc3c(ccn3C)c2)c1` [Example 131, N-((6-amino-2,4-dimethylpyridin-3-yl)methyl)-1-(1-methyl-1H-indol-5-ylsulfonyl)-1H-pyrrole-3-carboxamide], the half-inhibitory concentration (IC50) came to 9 nM.

The compound `Cc1nc(N)cc(OCc2ncco2)c1CNC(=O)c1cn(Cc2ccccc2)nn1` [Example 137, N-((6-amino-2-methyl-4-(oxazol-2-ylmethoxy)pyridin-3-yl)methyl)-1-benzyl-1H-1,2,3-triazole-4-carboxamide] registered a half-inhibitory concentration (IC50) of 127 nM.

Turning to `Cc1cc(N)nc(C)c1CNC(=O)c1cnn(Cc2ccc3c(c2)CCS3(=O)=O)c1` [Example 174, N-((6-amino-2,4-dimethylpyridin-3-yl)methyl)-1-((1,1-dioxido-2,3-dihydrobenzo[b]thiophen-5-yl)methyl)-1H-pyrazole-4-carboxamide], the midpoint of inhibition, the IC50, lay at 75 nM.

`Cc1cc(N)nc(C)c1CNC(=O)c1cnn(Cc2sc(-c3ccccc3)nc2C)c1` [Example 26, N-((6-amino-2,4-dimethylpyridin-3-yl)methyl)-1-((4-methyl-2-phenylthiazol-5-yl)methyl)-1H-pyrazole-4-carboxamide] came in with an IC50 of 19 nM.

Compound `Cc1cc(N)nc(C)c1CNC(=O)c1cnn(Cc2ccc(C(=O)NC3CCS(=O)(=O)C3)cc2)c1` (centres unmarked) [Example 111, 1-[4-(1,1-Dioxo-tetrahydro-1lambda*6*-thiophen-3-ylcarbamoyl)-benzyl]-1H-pyrazole-4-carboxylic acid (6-amino-2,4-dimethyl-pyridin-3-ylmethyl)-amide] registered a half-inhibitory concentration (IC50) of 2100 nM. This IC50 is about 110-fold higher than that of the compound before.

`Cc1cc(N)nc(C)c1CNC(=O)c1cc(Cc2ccccc2)no1` [Example 3, N-((6-amino-2,4-dimethylpyridin-3-yl)methyl)-3-benzylisoxazole-5-carboxamide] had an IC50 of 2260 nM.

As for `Cc1cc(N)nc(C)c1CNC(=O)c1cnn(Cc2ccc(N3CCCC3=O)cc2)c1` [Example 65, N-((6-amino-2,4-dimethylpyridin-3-yl)methyl)-1-(4-(2-oxopyrrolidin-1-yl)benzyl)-1H-pyrazole-4-carboxamide], the 50% inhibitory concentration (IC50) stood at 29 nM. This IC50 lies about 78-fold lower than the previous one.

In turn, `Cc1cc(N)nc(C)c1CNC(=O)c1cnn(Cc2cccc(-c3ccccc3)c2)c1` [Example 115, N-((6-amino-2,4-dimethylpyridin-3-yl)methyl)-1-(biphenyl-3-ylmethyl)-1H-pyrazole-4-carboxamide] registered an IC50 of 3.3 nM.

The compound `Cc1cc(N)nc(C)c1CNC(=O)c1ncn(Cc2cccc(-n3cccn3)c2)n1` [Example 67, 1-(3-(1H-pyrazol-1-yl)benzyl)-N-((6-amino-2,4-dimethylpyridin-3-yl)methyl)-1H-1,2,4-triazole-3-carboxamide] had an IC50 of 60 nM. This IC50 lies about 18-fold higher than the previous one.

`Cc1cccc(Cn2cc(C(=O)NCc3c(C)cc(N)nc3C)cn2)n1` [Example 86, N-((6-amino-2,4-dimethylpyridin-3-yl)methyl)-1-((6-methylpyridin-2-yl)methyl)-1H-pyrazole-4-carboxamide]: the IC50 turned out to be 7500 nM.

In turn, `Cc1cc(N)nc(C)c1CNC(=O)c1cnn(Cc2cc3ccsc3c(N)n2)c1` [Example 171, N-((6-Amino-2,4-dimethylpyridin-3-yl)methyl)-1-((7-aminothieno[2,3-c]pyridin-5-yl)methyl)-1H-pyrazole-4-carboxamide] yielded a 50% inhibitory concentration (IC50) of 26 nM. Against the preceding compound, the IC50 is about 290-fold lower.

Compound `Cc1cc(N)nc(C)c1CNC(=O)c1cn(Cc2cccc(C#N)c2)nn1` [Example 54, N-((6-amino-2,4-dimethylpyridin-3-yl)methyl)-1-(3-cyanobenzyl)-1H-1,2,3-triazole-4-carboxamide] gave a half-maximal inhibitory concentration (IC50) of 1800 nM.

`Cc1cc(N)nc(C)c1CNC(=O)c1cnn(Cc2ccc(Cn3ccnn3)cc2)c1` [Example 140, 1-(4-((1H-1,2,3-triazol-1-yl)methyl)benzyl)-N-((6-amino-2,4-dimethylpyridin-3-yl)methyl)-1H-pyrazole-4-carboxamide]: the concentration for half-maximal inhibition (IC50) stood at 4.6 nM.

Compound `COCCOc1cc(N)nc(C)c1CNC(=O)c1cnn(Cc2ccccc2)c1` [Example 60, N-((6-amino-4-(2-methoxyethoxy)-2-methylpyridin-3-yl)methyl)-1-benzyl-1H-pyrazole-4-carboxamide] returned an IC50 of 379 nM.

Turning to `Cc1cc(N)nc(C)c1CNC(=O)c1cnn(Cc2cccc(C#N)c2)c1` [Example 81, N-((6-amino-2,4-dimethylpyridin-3-yl)methyl)-1-(3-cyanobenzyl)-1H-pyrazole-4-carboxamide], the IC50 is 411 nM.

`Cc1cn(Cc2ccccc2)cc1C(=O)NCc1c(C)cc(N)nc1C` [Example 76, N-((6-amino-2,4-dimethylpyridin-3-yl)methyl)-1-benzyl-4-methyl-1H-pa role-3-carboxamide] had a 50% inhibitory concentration (IC50) of 949 nM.

Compound `Cc1cc(N)nc(C)c1CNC(=O)c1sc(Cc2ccccc2)nc1C` [Example 55, N-((6-amino-2,4-dimethylpyridin-3-yl)methyl)-2-benzyl-4-methylthiazole-5-carboxamide] yielded a 50% inhibitory concentration (IC50) of 6300 nM.

The compound `Cc1nc(N)ccc1CNC(=O)c1cnn(Cc2ccccc2)c1` [Example 85, N-((6-amino-2-methylpyridin-3-yl)methyl)-1-benzyl-1H-pyrazole-4-carboxamide] registered an IC50 of 4100 nM.

With `COc1cccc(S(=O)(=O)n2ccc(C(=O)NCc3c(C)cc(N)nc3C)c2)c1` [Example 129, N-((6-amino-2,4-dimethylpyridin-3-yl)methyl)-1-(3-methoxyphenylsulfonyl)-1H-pyrrole-3-carboxamide], 244 nM corresponded to half-maximal inhibition (IC50).

`Cc1cc(N)nc(C)c1CNC(=O)c1cnn(Cc2csc(C(C)(C)C)n2)c1` [Example 28, N-((6-amino-2,4-dimethylpyridin-3-yl)methyl)-1-((2-tert-butylthiazol-4-yl)methyl)-1H-pyrazole-4-carboxamide] yielded a 50% inhibitory concentration (IC50) of 343 nM. The IC50 values of the last two compounds are within 1.5-fold of each other.

Compound `Cc1cc(N)nc(C)c1CNC(=O)c1cnn(Cc2ccc(CN3C(=O)CCC3=O)cc2)c1` [Example 17, N-((6-amino-2,4-dimethylpyridin-3-yl)methyl)-1-(4-((2,5-dioxopyrrolidin-1-yl)methyl)benzyl)-1H-pyrazole-4-carboxamide] had a half-inhibitory concentration (IC50) of 98 nM.

For the compound `Cc1cc(N)nc(C)c1CNC(=O)c1cnn(Cc2ccc3ccn(C)c3c2)c1` [Example 34, N-((6-amino-2,4-dimethylpyridin-3-yl)methyl)-1-((1-methyl-1H-indol-6-yl)methyl)-1H-pyrazole-4-carboxamide], it took 46 nM to reach half-maximal inhibition (IC50).
